Data set [1] can be described thus: solubility in solvents and water. Format: physicochemical. From the text:
Compound 18 was converted to the water-soluble TBP Compound 19 with tert-butylammonium fluoride in THF, followed by cation exchange.

The test system of data set [2] is human glioblastoma T98G cells. As to the kind of experiment: Concentration-dependent cellular uptake. Format: cell-based. To be noted: for dependence of uptake on concentration: up to 200 μM. How it is done:
Human glioblastoma T98G cells and cervical carcinoma HEp2 cells were obtained from ATCC. Both cell lines were maintained in 50% α-MEM/advanced MEM, supplemented with 5% fetal bovine serum. Phosphate buffered saline (PBS), fetal bovine serum, and trypsin were purchased from Gibco; Cyquant reagent and Lysosensor were purchased from Molecular Probes, and Triton X-100 was purchased from Calbiochem. Microscopy was performed on a Zeiss Axiovert 200M inverted fluorescence microscope fitted with standard Texas Red and FITC filter sets (Chroma Technology Corp.). Images were acquired with a Zeiss Axiocam MRM CCD camera fitted to the microscope, and were pseudo-colored with Adobe Photoshop® CS version 8.0. […] All medium solutions were filter-sterilized ([…] pore size) prior to use. All data obtained in the FLUOstar plate reader was analyzed using Prism 3.0 graphing software.
Human T98G cells were sub-cultured on 96-well plates at 10,000 cells/100 μL α-MEM/advanced medium per well, and were incubated for 48 h. […] A standard curve for different cell numbers was obtained by placing 100,000, 80,000, 60,000, 40,000, 20,000, 10,000, and 0 cells in the wells, followed by incubation for 3 h. A standard graph was prepared from the wells with known cell numbers. Unknown cell numbers from the experiments were determined by first adding 100 μL/well of 5 μM stock solution of Cyquant reagent in PBS, and then reading the plate on a FLUOstar plate reader using 480 nm excitation and 520 emission filters. The same procedure was followed for determining the concentration-dependent cellular uptake of porphyrin 20, but using 570 nm excitation and 650 nm emission filters.

In data set [3] the test system is human glioblastoma T98G cells. Nature of the data set: Time-dependent cellular uptake. It counts as cell-based. The settings on record: 10 μM, FIG. 12. The protocol:
(§1) Human glioblastoma T98G cells and cervical carcinoma HEp2 cells were obtained from ATCC. Both cell lines were maintained in 50% α-MEM/advanced MEM, supplemented with 5% fetal bovine serum. Phosphate buffered saline (PBS), fetal bovine serum, and trypsin were purchased from Gibco; Cyquant reagent and Lysosensor were purchased from Molecular Probes, and Triton X-100 was purchased from Calbiochem. Microscopy was performed on a Zeiss Axiovert 200M inverted fluorescence microscope fitted with standard Texas Red and FITC filter sets (Chroma Technology Corp.). Images were acquired with a Zeiss Axiocam MRM CCD camera fitted to the microscope, and were pseudo-colored with Adobe Photoshop® CS version 8.0. Compounds 19 and 20 were dissolved in DMSO (Sigma-Aldrich) prior to being diluted into cell medium so that the final DMSO concentration never exceeded 1%. All medium solutions were filter-sterilized ([…] pore size) prior to use. All data obtained in the FLUOstar plate reader was analyzed using Prism 3.0 graphing software.
Human T98G cells were sub-cultured and incubated for 48 h as otherwise described above. A filter-sterilized, 10 μM stock solution of TBP 19 in 1% DMSO/medium was added, and the cells were incubated for 24, 16, 8, 4, 2, 1, 0.5 and 0 h. […] Known and unknown concentrations of TBP 19 were determined as described above for the concentration-dependent uptake. […]

The test system of data set [4] is Human HEp2 cells. Nature of the data set: Intracellular localization (fluorescence microscopy, Lysosensor co-localization). Format: cell-based. The settings on record: 50 μM, 24 h incubation, fluorescence pattern and overlay with Lysosensor; listed as TBP 19. The protocol:
as §1
Human HEp2 cells were sub-cultured on Lab-Tek II chamber cover slips with α-MEM/advanced medium for 48 h. TBP 5 was added to each chamber to reach a final concentration of 50 μM. […] New medium containing 50 mM HEPES pH 7.4 was added, and the cells were examined immediately by fluorescence microscopy. […]

The subject of data set [5] is BALB/c mice. As to the kind of experiment: Animal toxicity (clinical signs, serum chemistry, histopathology). It counts as in vivo. To be noted: for AP / Albumin / BUN / Bilirubin / Globulin / Glucose / Total Prot. / ALT / AST: serum, blood 48 h after administration, group mean; for ALT / AST: in U/L (unit assumed). How it is done: Twelve groups of two BALB/c mice each, 4-6 weeks of age and weighing 12-24 g (mean=19 g), were used for toxicity studies. There were 8 female and 16 male mice. Mice in groups 1, 3, 5, 7, and 9 were administered TBP 19 once via i.p. injection, at increasing dosages: group 1 (20 mg/kg of a 2 mg/ml solution), group 3 (40 mg/kg of a 2 mg/ml solution), group 5 (80 mg/kg of a 4 mg/ml solution), group 7 (120 mg/kg of a 4 mg/ml solution), and group 9 (160 mg/kg of a 4 mg/ml solution). Mice in groups 2, 4, 6, 8, and 10 were administered porphyrin 20 once via i.p. injection at increasing dosages: group 2 (20 mg/kg of a 2 mg/ml solution), group 4 (40 mg/kg of a 2 mg/ml solution), group 6 (80 mg/kg of a 4 mg/ml solution), group 8 (120 mg/kg of a 4 mg/ml solution), and group 10 (160 mg/kg of a 4 mg/ml solution). Two groups of mice served as vehicle controls. Mice in group 11 received sterile 4% Cremophor EL (Fluka) in PBS and served as controls for mice receiving 20, 40, and 80 mg/kg compound; while mice in group 12 received 6% Cremophor EL and served as controls for mice receiving 120 and 160 mg/kg compound.
For each compound, groups were dosed sequentially and each group was evaluated daily for signs of toxicity, including hunched posture, rough hair coat, and decreased responsiveness. Mice were anesthetized with CO2 48 h after compound administration, and blood was collected by cardiocentesis for clinical chemistry evaluation. Serum chemistry was analyzed, including glucose, aspartate aminotransferase (AST), alanine aminotransferase (ALT), alkaline phosphatase (AP), bilirubin, total protein (TP), albumin, globulin, and blood urea nitrogen (BUN). The mice were exsanguinated and necropsies were performed. Tissues, including lung, kidney, thymus, heart, Harderian gland, spleen, stomach, small intestine and colon were fixed in 10% neutral buffered formalin. The fixed tissues were processed and examined by a board-certified pathologist.

Setting [6] is: T98G cells, 3 h exposure, FIG. 11.
Setting [7] is: BALB/c mice, 20 mg/kg single i.p. injection.
The mark [8] stands for this setting: BALB/c mice, 40 mg/kg single i.p. injection.
Setting [9] is: BALB/c mice, 80 mg/kg single i.p. injection.
Where [10] appears, read: BALB/c mice, 120 mg/kg single i.p. injection.
[11] abbreviates: BALB/c mice, 160 mg/kg single i.p. injection.

Entries after “also recorded” stand apart in the source; their conditions may differ. Marks after values point to notes of the source that are not given here.

Take “5,10,15,20-Tetra[4-(nido-carboranyl)phenyl-tetrabenzoporphyrin [Compound 19]”: in data set [1] (such as acetone, methanol and DMSO), the “solubility in polar organic solvents” value was “highly soluble”. For the same substance, the solubility in water entry in data set [1] (water) is listed as “slightly soluble”. In data set [2] (setting [6]), the “concentration accumulated within cells, higher than porphyrin 20” value is reported as “approximately 30%” and the “dependence of uptake on concentration” value is “increased with increasing concentration, in an almost linear fashion”. Also, the “uptake in T98G cells in comparison with carboranylporphyrin 20” value in data set [2] (in vitro, in words) was “significantly higher uptake”. Besides, the “amount within T98G cells relative to Compound 20” value in data set [3] (after 24 h) is “approximately 3 times”. The “time-dependent uptake compared with porphyrin 20” value in data set [3] (all times 0-24 h) is “taken up faster and to a greater extent”. The “site of intracellular localization” value in data set [4] is reported as “localization in the cellular lysosomes”. Besides, in data set [5] (160 mg/kg, single i.p. injection, 4 mg/mL, listed as TBP 19), the “toxicity to BALB/c mice” value is given as “non-toxicity; also recorded: non-toxic”. Besides, the signs of toxicity entry in data set [5] (BALB/c mice, 20-160 mg/kg single i.p. injection, daily evaluation) is listed as “No signs of toxicity”. Moreover, in data set [5] (BALB/c mice, i.p., maximum 160 mg/kg), the “serum chemistry changes attributable to compound” value is listed as “No serum chemistry changes were observed”. Moreover, the “clinical, biochemical, or histopathological effects attributable to administration” value in data set [5] (BALB/c mice, single i.p. injection up to 160 mg/kg) is given as “No clinical, biochemical, or histopathological effects were observed”. The “toxicity compared with other negatively charged carboranyl-containing porphyrins (BOPP, MnBOPP, BTPP, NiNTCP-H, ZnDPE, NiDPE)” value in data set [5] (mice, preliminary results) is listed as “significantly less toxic”. Besides, in data set [5] (setting [7]), the AP is 189.5^a,c, the Albumin came to 2.85 g/dL, the BUN was 28 mg/dL and the Bilirubin amounted to 0.15 mg/dL. Besides, in data set [5] (setting [7]), the Globulin is 1.8^a, the Glucose was 153.5^a, the Total Prot. came out at 4.65 g/dL and the ALT amounted to 151.5. In data set [5] (setting [7]), this substance registered an AST of 177.5. For the same substance, in data set [5] (setting [8]), the AP is reported as 201.0^b,c, the Albumin is 2.8 g/dL, the BUN was found to be 27 mg/dL and the Bilirubin is 0.2 mg/dL. For the same substance, in data set [5] (setting [8]), the Globulin is recorded as 1.9^a, the Glucose was 219.5^c, the Total Prot. was 4.7 g/dL and the ALT stood at 96.5. In data set [5] (setting [8]), this substance gave an AST of 455.5. Also, in data set [5] (setting [9]), the AP was 138.0^a, the Albumin came out at 2.75 g/dL, the BUN was found to be 25.5 mg/dL and the Bilirubin came out at 0.2 mg/dL. In data set [5] (setting [9]), the Globulin was 2.35^b, the Glucose is 229.5^c, the Total Prot. turned out to be 5.1 g/dL and the ALT amounted to 120.0. For the same substance, the AST in data set [5] (setting [9]) came out at 454.5. In data set [5] (setting [10]), the AP is recorded as 161.0^a, the Albumin was 2.75^a, the BUN is 15.5^a,b and the Bilirubin worked out at 0.2 mg/dL. Besides, in data set [5] (setting [10]), the Globulin is recorded as 2.35^a, the “Total Prot.” value is given as 5.1^a, the ALT was 29.0 and the AST was 73.0. The same substance registered a Glucose in data set [5] (BALB/c mice, 120 mg/kg single i.p. injection, in mg/dL (unit assumed)) of 224.5. In data set [5] (setting [11]), the AP is reported as 223.5^b, the BUN is recorded as 22.5^b,c, the Bilirubin turned out to be 0.25 mg/dL and the Globulin is reported as 1.95^b. Also, in data set [5] (setting [11]), the “Total Prot.” value is 4.35^b, the ALT came out at 206.0 and the AST amounted to 498.0. For the same substance, the Albumin result in data set [5] (BALB/c mice, 160 mg/kg single i.p. injection, 160 mg/kg) is recorded as “lower than for other mice”. The same substance had a Glucose in data set [5] (BALB/c mice, 160 mg/kg single i.p. injection, in mg/dL (unit assumed)) of 172.0. Moreover, the Albumin in data set [5] (BALB/c mice, 160 mg/kg single i.p. injection, listed as TBP 5, 160 mg/kg) is listed as 2.4^b.
As for “tetra(nido-carboranylphenyl)porphyrin [Compound 20, reference compound]”, the “dependence of uptake on concentration” value in data set [2] (setting [6]) was “increased with increasing concentration, in an almost linear fashion”.
“5,10,15,20-Tetra[4-(o-carboranyl)phenyl-tetrabenzoporphyrin [Compound 18]”: in data set [1] (such as dichloromethane and acetone), the “solubility in organic solvents” value is listed as “soluble”.
With “5,10,15,20-Tetra(4′-cobaltacarborane 4-hydroxyphenyl)porphyrin [Compound 13]”, the solubility in methanol result in data set [1] was “soluble”.
In the case of “5,10,15,20-Tetra(4′-cobaltacarboranepyridyl)porphyrin [Compound 5]”, the “solubility in polar organic solvents” value in data set [1] (acetone, ethyl acetate, acetonitrile, DMF, and DMSO) was “highly soluble”. The solubility in methanol result in data set [1] was “not”.
